Two compounds from patent US9879050B2, “Substituted urea depsipeptide analogs as activators of the CLPP endopeptidase” (priority 2013, dated 2018) can be followed below.

In general, IC50 refers to the concentration that gives 50% inhibition. High values mean weaker potency in that assay, low ones greater potency in that assay.

Each structure is given as a SMILES string. ≈ marks a conversion by molar mass, not a printed value.

The conditions of series [1]: from C[C@H]1C[C@@H](C(=O)O[C@@H](C)[C@H](NC(=O)OCc2ccccc2)C(=O)OCC(=O)c2ccccc2)N(C(=O)[C@H](C)NC(=O)[C@@H]2CCCCN2C(=O)[C@@H]2CCCN2C(=O)OC(C)(C)C)C1, amide bond, pentafluorophenyl ester (EDC·HCl/pentafluorophenol), then aq NaHCO3, DCM, 1.24 mM, 25.0 °C, 4 steps.
The test system of series [2] is Vero (kidney epithelial cells; ATCC CCL-81). As to the kind of experiment: Cytotoxicity assay, CellTiter-Glo cell viability. The class given is cell-based. To be noted: Vero cells, 72 hours. In short, it runs like this: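 Vero cells seeded overnight at 37 °C in DMEM with 10% FBS, then exposed to serial dilutions of compound for 72 h. Viability read by CellTiter-Glo luminescence; IC50 from duplicates, given as the range of two independent experiments.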
A general note: Cellular ATP, detected with luciferase, serves as a proxy for viable cell number.

Series [3] concerns S. aureus USA 300 ΔClpP. As to the kind of experiment: Minimal inhibitory concentration, microbroth dilution. To be noted: ClpP inactivated strain. The class given is cell-based, Staphylococcus aureus. A digest of the protocol:
(§1)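 Susceptibility testing used the CLSI dilution standard, with bacteria at ~10^5 cfu/mL exposed to a two-fold compound series beginning at 200 μM final. The endpoint is the lowest concentration showing no growth after overnight incubation (37 °C, aerobic).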

Series [4] relates to S. pneumoniae R6. The series is described as above. The conditions noted are these: Streptococcus pneumoniae, R6, read-out: Minimal Inhibitory Concentration S. pneumoniae R6. In kind it is cell-based. In short, it runs like this:
(§2)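 Twofold serial dilutions in broth per CLSI M7-A7 microbroth dilution, incubated aerobically overnight at 37° C. MIC read visually as lowest concentration preventing bacterial growth.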

The subject of series [5] is S. pyogenes ATCC 700294. The series is described as above. In kind it is cell-based. The conditions noted are these: Streptococcus pyogenes, ATCC700294, read-out: Minimal Inhibitory Concentration S. pyogenes ATCC 700294. In short, it runs like this:
as §2

Series [6] has as its system B. subtilis ATCC 23857. The series is described as above. The class given is cell-based. The conditions noted are these: Bacillus subtilis, ATCC23857, read-out: Minimal Inhibitory Concentration B. subtilis ATCC 23857. A digest of the protocol: as §1
For series [7], the system named is S. aureus ATCC 29213. The series is described as above. In kind it is cell-based. To be noted: Staphylococcus aureus, ATCC29213, read-out: Minimal Inhibitory Concentration S. aureus ATCC 29213. In short, it runs like this:
as §1

For series [8], the system named is S. aureus NRS70. The description is as above. In kind it is cell-based. To be noted: Staphylococcus aureus, NRS70, read-out: Minimal Inhibitory Concentration S. aureus NRS70. A digest of the protocol: as §1
Series [9] relates to S. aureus USA 300. The series is described as above. The class given is cell-based. To be noted: Staphylococcus aureus, USA300, read-out: Minimal Inhibitory Concentration S. aureus USA 300. A digest of the protocol:
as §1

On to `C[C@H]1C[C@H]2C(=O)O[C@@H](C)[C@H](NC(=O)OCc3ccccc3)C(=O)N3CCC[C@H]3C(=O)N3CCCC[C@H]3C(=O)N[C@@H](C)C(=O)N2C1`, for which the ring closure, yield of all isomers in series [1] is 74%.

Consider `Cc1ccc(NC(=O)N[C@@H](Cc2cc(F)cc(F)c2)C(=O)N[C@@H]2C(=O)N3CCCC3C(=O)N(C)[C@@H]([C@H](C)O)C(=O)N[C@@H](C)C(=O)N3C[C@H](C)CC3C(=O)O[C@H]2C)cc1` (stereo partly drawn) [Compound 38, (S)-3-(3,5-Difluorophenyl)-N-((2R,6S,9S,11aS,17S,18S,20aS)-9-((S)-1-Hydroxyethyl)-2,6,10,18-Tetramethyl-5,8,11,16,20-Pentaoxohexadecahydro-1H,5H,16H-Dipyrrolo[2,1-C:2′,1′-L][1]Oxa[4,7,10,13]Tetraazacyclohexadecin-17-Yl)-2-(3-(P-Tolyl)Ureido)Propanamide], for which it took 46.1 ± 5.5 µM to reach half-maximal inhibition in series [2] (IC50). The “Minimal Inhibitory Concentration S. aureus USA 300 ΔClpP” value in [3] is 200 µM. The MIC was 0.02 µM (≈ 0.0162 µg/mL) in series [4]; 0.1 µM (≈ 0.0812 µg/mL) in [5]; 0.05 µM (≈ 0.0406 µg/mL) in [6]; 0.05 µM (≈ 0.0406 µg/mL) in [7]; 0.05 µM (≈ 0.0406 µg/mL) in [8]; 0.1 µM (≈ 0.0812 µg/mL) in [9].
